In patent US20110217355A1, “CONTACT LENS BASED BIOACTIVE AGENT DELIVERY SYSTEM” (priority 2007, published 2011):
Like-named read-outs stand apart in the source and are kept apart here.

Legend:
[1] = Surfactant release experiments from hydrogels in DI water (surface tension); format: physicochemical; details: for Slope (surfactant release vs rescaled time): p-HEMA gels, slope = √(2DSC*×100); for DSC*: surfactant diffusivity times critical aggregation concentration in p-HEMA gel, from fitting surfactant release data
Description: The rates of surfactant release were measured in 3.5 ml of DI water with water replacement after each measurement to maintain perfect sink conditions. The surfactant concentration in the release medium was determined by measuring surface tension (σ), which was then related to the concentration through a σ(C) calibration curve. The surface tension was measured by using a Wilhelmy plate (sand blasted platinum plate) attached to a Scaime France Microbalance which was further connected to a Stathan Universal transducer (SC001).
The rate of surfactant release from surfactant-laden contact lenses needs to be measured because an excessive release could lead to toxicity. Additionally, the rate of surfactant release impacts drug release. As described in the previous section, the surfactant concentration in the release medium was determined by measuring the surface tension of the solution, which is related to the bulk concentration (Data not shown).
where DS is the surfactant diffusivity, C* is the critical aggregation concentration (CAC), i.e., the concentration beyond which the surfactant aggregates inside the gel, t is time, Cp is the concentration of the surfactant present as aggregates inside the hydrogel, and h is the half-thickness of the hydrogel. The above equation is valid for diffusion of any solute that is loaded in the gel above saturation limit and so a fraction of the solute precipitates into aggregates. This equation is the equivalent of the Higuchi equation that is commonly utilized to model drug release from gels [Higuchi T. Rate of release of medicaments from ointment bases containing drugs in suspension. Journal of Pharmaceutical Sciences 1961; 50(10):874-875].
To validate the model and to understand the mechanism of surfactant transport, surfactant release studies were conducted from gels of different surfactant loadings (approximately 2%, 4% and 8% w/w in drug gel) and different gel thicknesses (˜100 and 200 μm in dry state). FIG. 8a-c show the surfactant release from 100 μm thick and 200 μm thick gels with three different surfactant concentration explored for 200 μm thick gels. The data is re-plotted in FIG. 9a-c with time axis rescaled to
The fact that association of Brij 700 with the gel matrix is strongly dependant on the gel thickness may be due to large number of ethylene oxide (EO) units in the surfactant.
The slope indicated in FIG. 9(a-c) represents the value of √{square root over (2DSC*×100)}.
As mentioned above, the critical aggregation concentration for Brij 700 in p-HEMA gels is more than 1%, and so the release data from gels loaded with 1% (w/w) can be fitted to the following equation to obtain the surfactant diffusivity [Ritger P L, Peppas N A. A simple equation for description of solute release 1. Fickian and non-Fickian release from mom-swellable devices in the form of slabs, spheres, cylinders and discs. Journal of Controlled Release 1987; 5:23-36].
Here DS is the diffusivity of the surfactant and h is the half-thickness of the gel. The diffusivity of Brij 700 from these hydrogels was determined to be 7.85×10^−17 m^2/s and subsequently the value of C* was evaluated from the already determined parameter ‘DsC*’ (Table 4) to be 2.4±1.1 mM, which is equivalent to 1.12±0.51% surfactant in a dry gel. This value is in reasonable agreement with the hypothesis C* for Brij 700 is approximately 2%, which was based on the overlapping percentage release data for 1% and 2% Brij 700 loaded gels.

[2] = Physical properties of the surfactants obtained from literature; format: physicochemical; details: carbons in hydrophobic tail / total carbons
Description: Table 3 lists the surfactants utilized in this study and their relevant physical properties obtained from literature. The value of ‘fh’ is also listed, this is defined as the fraction of hydrophobic chain length of the surfactant and is calculated by taking the ratio of number of carbons in the hydrophobic tail of the surfactant to the total number of carbons present in the surfactant.

[3] = calculated earlier (Kapoor and Chauhan 2008), reported for comparison; cited from earlier work
cornea = details: exposure to 0.05% solution for about 5 hours; cited from earlier work

Row | Substance | Slope (surfactant release vs rescaled time) [1] | DSC* [1] | fh (fraction of hydrophobic chain length of the surfactant) [2] | DSC* [3] | Slope (surfactant release vs rescaled time) [3] | corneal hydration (cornea) | average release of surfactant ([1]; 100 micron thick gel with 8% loading) | amount of surfactant released ([1]; 100 micron thick gel with 8% loading, 10 days) | surfactant released from gel ([1]; 100 micron thick gel with 8% loading, period of 10 days) | surfactant released into the post lens tear film ([1]; at the most half of the average release, lens on an eye) | C* as surfactant in a dry gel ([1]; equivalent of the mM value) | C* (critical aggregation concentration) ([1]; in p-HEMA gel, evaluated from DsC* and DS) | diffusivity of the surfactant from hydrogels (DS) ([1]; p-HEMA gels loaded with 1% (w/w) surfactant)
1 | POE (10) oleyl ether [Brij 97] | 0.4802 ± 0.010 | 11.52 (μm)^2M/s × 10^6 | 0.47 |  |  |  |  |  |  |  |  |  | 
2 | POE (20) oleyl ether [Brij 98] |  |  | 0.31 | 60.80 (μm)^2M/s × 10^6 | 1.1000 ± 0.013 |  |  |  |  |  |  |  | 
3 | POE (20) stearyl ether [Brij 78] | 0.1846 ± 0.050 | 1.70 (μm)^2M/s × 10^6 | 0.31 |  |  | does not lead to any significant increase in corneal hydration | about 30 μg/day | around 300 μg | about 10% | ≤ 15 µg/day |  |  | 
4 | POE (100) stearyl ether [Brij 700] | 0.0613 ± 0.013 | 0.19 (μm)^2M/s × 10^6 | 0.08 |  |  |  |  |  |  |  | 1.12±0.51% | 2.4 ± 1.1 mM | 7.85×10^−17 m^2/s
